Measurements from PMC7108740, “Exploring the molecular structures that confer ligand selectivity for galanin type II and III receptors” (PLoS ONE, 2020).
Substitutions are numbered along the chain they refer to.

Legend:
GALR3 septuple = molecular target: T1, GALR3 septuple (Homo sapiens, UniProt O60755, A190V/A191F/C272L/G192S/L100F/Y103F/Y107H); experiment: SRE-luc luciferase assay, GALR3 septuple mutant; type: cell-based; conditions: SRE-luc in HEK293 Gqi cells, ligand 6 h, mean ± SE, SEM
T1 construct: expressed in transfected cells; host or cells: HEK293 cells stably expressing pGlosensor-22F cAMP plasmid
T1 sequence (O60755 1-368 L100F/Y103F/Y107H/A190V/A191F/G192S/C272L): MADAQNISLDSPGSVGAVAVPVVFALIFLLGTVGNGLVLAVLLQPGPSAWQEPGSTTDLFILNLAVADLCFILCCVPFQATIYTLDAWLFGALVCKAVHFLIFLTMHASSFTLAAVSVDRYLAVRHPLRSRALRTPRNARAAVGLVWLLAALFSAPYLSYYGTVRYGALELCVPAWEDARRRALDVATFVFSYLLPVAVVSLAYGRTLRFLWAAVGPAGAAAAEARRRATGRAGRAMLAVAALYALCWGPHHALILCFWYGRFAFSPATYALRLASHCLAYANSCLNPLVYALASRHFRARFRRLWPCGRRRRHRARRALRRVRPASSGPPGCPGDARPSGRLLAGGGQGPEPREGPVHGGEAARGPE
Source text: For domain swapping between GALR2 and GALR3, individual cDNA fragments of interest were amplified by polymerase chain reaction (PCR) with Pfu polymerase (ELPIS Biotech, Daejeon, Korea) and two specific primers, one corresponding to the 5' or 3' end of the GALR2 or GALR3 cDNA and the other to the region of overlap between the two receptors. The two resulting fragments, one from GALR2 and the other from GALR3, were subjected to a second round of PCR to generate the chimeric cDNAs. To construct single, double-, triple-, pentuple-, hextuple-, and septuple-mutant receptors, amino acids of GALR3 were substituted for the amino acids at the corresponding positions in GALR2 using PCR-based site-directed mutagenesis. […]
For luciferase assays, HEK293 Gqi cells were seeded on 48-well plates at a density of 2.5 × 10^4 cells/well one day before transfection. […] The luciferase activity in 50 μl cell extract was determined using a luciferase assay system according to the standard protocol for the Synergy 2 Multi-Mode Microplate Reader (BioTek, Winooski, VT, USA).
(§1) Data analysis was performed by non-linear regression with a sigmoidal dose-response curve. The concentrations of agonists that induced half-maximal stimulation (EC50) were calculated using the GraphPad PRISM5 software (GraphPad software, Inc., San Diego, CA). […]

GALR3 = molecular target: T2, GALR3 (Homo sapiens, UniProt O60755); experiment: cAMP assay (inhibition of forskolin-induced cAMP), WT GALR3; type: cell-based; parameters: expressed in transfected cells; host or cells: HEK293 cells stably expressing pGlosensor-22F cAMP plasmid; conditions: Glosensor-22F cAMP HEK293 cells, agonist 10 min then forskolin 10 μM, mean ± SE, SEM
T2 sequence (O60755 1-368): T1 sequence (O60755 1-368 L100F/Y103F/Y107H/A190V/A191F/G192S/C272L) with F100L, F103Y, H107Y, V190A, F191A, S192G, L272C
Protocol: SPX-induced or Qu-SPX-induced cyclic adenosine monophosphate (cAMP) mobilization was measured in HEK293 cells stably expressing the pGlosensor^TM-22F cAMP plasmid (Promega Corp., Madison, WI, USA). The Glosensor-22F cAMP HEK293 cells were seeded on 96-well plates at a density of 2.0 × 10^4 cells/well 24 h before transfection. A mixture including 100 ng expression plasmid and lipofectamine 2000 reagent in diluted Opti-MEM (Gibco) was incubated at room temperature for 20 min. The mixtures were added into each well according to the manufacturer's instructions (Invitrogen, CA, USA). After 48 h, Glosensor cAMP substrates were added to the transfected cells in CO2-independent media. After 2 h, the cells were incubated with a range of agonist concentrations or vehicle for 10 min and then exposed to foskolin (10 μM). Luminescence was measured for up to 30 min using a Microplate Reader (BioTek, Winooski, VT, USA).
as §1, with “CA). All data are presented as the mean ± standard error (SE) of at least three independent experiments.” for “CA).”

CSCC[C@H](NC(=O)[C@H](C)NC(=O)[C@H](CCC(N)=O)NC(=O)[C@@H]1CCCN1C(=O)[C@@H](NC(=O)[C@H](Cc1c[nH]c2ccccc12)NC(=O)[C@@H](N)CC(N)=O)[C@@H](C)O)C(=O)N[C@@H](CC(C)C)C(=O)N[C@@H](Cc1ccc(O)cc1)C(=O)N[C@@H](CC(C)C)C(=O)N[C@@H](CCCCN)C(=O)NCC(=O)N[C@@H](C)C(=O)N[C@@H](CCC(N)=O)C(N)=O [SPX, reference compound]
EC50 (GALR3 septuple): 0.00407 ± 0.00112 µM
EC50 (GALR3): 0.117 ± 0.0514 µM
